PubChem BioAssay AID328 (DTP/NCI, 2004)
Several values for one entry are separate records, joined by “and”; a condition that tells them apart may be missing. Identical values can stand only once. Inconclusive results and toxic doses are left out.

System: BDF1 mice, P388 leukemia ip, median survival T/C
Assay: NCI In Vivo Anticancer Drug Screen. Data for tumor model P388 Leukemia (intraperitoneal) in B6D2F1 (BDF1) mice
Details: endpoint: median survival time, higher = longer survival
Procedure, shortened: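 In tumour-bearing mice, survival after compound treatment is set against the vehicle group and given as a quotient.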

[1] = dose: 50.0 mg/kg/injection, schedule: Q01DX009 (ip), vehicle: saline with Tween-80
[2] = dose: 100.0 mg/kg/injection, schedule: Q01DX009 (ip), vehicle: saline with Tween-80
[3] = dose: 200.0 mg/kg/injection, schedule: Q01DX009 (ip), vehicle: saline with Tween-80
[4] = dose: 400.0 mg/kg/injection, schedule: Q01DX009 (ip), vehicle: saline

For `COc1ccc(N=Cc2ccc3c(c2)OCO3)cc1`, the T/C [1] was 98 % of control, the T/C [2] was 100 % of control and the T/C [3] was 105 % of control. For the same compound, the T/C (dose: 400.0 mg/kg/injection, schedule: Q01DX009 (ip), vehicle: saline with Tween-80) was 98 % of control.
`CCCCCSc1nc(N)nc2nc[nH]c12` was tested, and the T/C (dose: 100.0 mg/kg/injection, schedule: Q01DX009 (ip), vehicle: Klucel (hydroxypropylcellulose) (HPC)) was 118 % of control, the T/C (dose: 100.0 mg/kg/injection, schedule: Q04DX003 (ip), vehicle: other) was 100 % of control and the T/C (dose: 200.0 mg/kg/injection, schedule: Q01DX009 (ip), vehicle: Klucel (hydroxypropylcellulose) (HPC)) was 95 % of control. The T/C (dose: 200.0 mg/kg/injection, schedule: Q04DX003 (ip), vehicle: other) was 100 % of control and the T/C (dose: 400.0 mg/kg/injection, schedule: Q04DX003 (ip), vehicle: other) was 94 % of control.
For `CCCCCCCN1C=CCC(S(=O)(=O)N2CCOCC2)=C1`, the T/C [1] was 109 % of control, the T/C [2] was 99 % of control and the T/C [3] was 109 % of control.
With `O=c1[nH]cnc2c1ncn2C1OC(CO)C(O)C1O` (stereo not given) the T/C (dose: 100.0 mg/kg/injection, schedule: Q01DX009 (ip), vehicle: saline) was 99 % of control, the T/C (dose: 200.0 mg/kg/injection, schedule: Q01DX009 (ip), vehicle: saline) was 100 % of control and the T/C [4] was 103 % of control.
`C1CSCSC1` was tested, and the T/C (dose: 6.25 mg/kg/injection, schedule: Q04DX003 (ip), vehicle: Klucel (hydroxypropylcellulose) (HPC)) was 100 % of control, the T/C (dose: 12.5 mg/kg/injection, schedule: Q04DX003 (ip), vehicle: Klucel (hydroxypropylcellulose) (HPC)) was 95 % of control and the T/C (dose: 25.0 mg/kg/injection, schedule: Q04DX003 (ip), vehicle: Klucel (hydroxypropylcellulose) (HPC)) was 87 % of control.
For `CC12CCC(O)CC1CCC1C2CCC2(C)C(c3ccc(=O)oc3)C(O)C3OC132` (stereo not given), the T/C (dose: 3.5 mg/kg/injection, schedule: Q01DX009 (ip), vehicle: Klucel (hydroxypropylcellulose) (HPC)) was 100 % of control and the T/C (dose: 7.0 mg/kg/injection, schedule: Q01DX009 (ip), vehicle: Klucel (hydroxypropylcellulose) (HPC)) was 102 % of control.
For `Cc1cc(=O)[nH]c2c1CCCC2`, the T/C (dose: 37.5 mg/kg/injection, schedule: Q01DX009 (ip), vehicle: saline with Tween-80) was 92 % of control, the T/C (dose: 75.0 mg/kg/injection, schedule: Q01DX009 (ip), vehicle: saline with Tween-80) was 99 % of control and 118 % of control and the T/C (dose: 150.0 mg/kg/injection, schedule: Q01DX009 (ip), vehicle: saline with Tween-80) was 103 % of control. The T/C (dose: 300.0 mg/kg/injection, schedule: Q01DX009 (ip), vehicle: saline with Tween-80) was 91 % of control.
With `O=c1cnn(C2OC(CO)C(O)C2O)c(=O)[nH]1` (stereo not given) the T/C (dose: 12.5 mg/kg/injection, schedule: Q01DX009 (ip), vehicle: Klucel (hydroxypropylcellulose) (HPC)) was 108 % of control and 115 % of control, the T/C (dose: 25.0 mg/kg/injection, schedule: Q01DX009 (ip), vehicle: Klucel (hydroxypropylcellulose) (HPC)) was 123 % of control and the T/C (dose: 75.0 mg/kg/injection, schedule: Q01DX009 (ip), vehicle: Klucel (hydroxypropylcellulose) (HPC)) was 112 % of control. For the same compound, the T/C (dose: 150.0 mg/kg/injection, schedule: Q01DX009 (ip), vehicle: Klucel (hydroxypropylcellulose) (HPC)) was 106 % of control, the T/C (dose: 180.0 mg/kg/injection, schedule: Q01DX009 (ip), vehicle: saline) was 111 % of control and the T/C (dose: 200.0 mg/kg/injection, schedule: Q01DX010 (ip), vehicle: saline) was 116 % of control and 122 % of control. The T/C (dose: 268.0 mg/kg/injection, schedule: Q01DX009 (ip), vehicle: saline) was 111 % of control, the T/C (dose: 300.0 mg/kg/injection, schedule: Q01DX009 (ip), vehicle: Klucel (hydroxypropylcellulose) (HPC)) was 106 % of control and the T/C [4] was 117 % of control. For the same compound, the T/C (dose: 400.0 mg/kg/injection, schedule: Q01DX010 (ip), vehicle: saline) was 154 % of control, the T/C (dose: 600.0 mg/kg/injection, schedule: Q01DX009 (ip), vehicle: saline) was 109 % of control and the T/C (dose: 1200.0 mg/kg/injection, schedule: Q01DX009 (ip), vehicle: Klucel (hydroxypropylcellulose) (HPC)) was 91 % of control. For the same compound, the T/C (dose: 1600.0 mg/kg/injection, schedule: Q01DX010 (ip), vehicle: saline) was 100 % of control.
With `CCOP(=O)(N1CC1(C)C)N1CC1(C)C` (stereo not given) the T/C (dose: 50.0 mg/kg/injection, schedule: Q04DX003 (ip), vehicle: alcohol) was 110 % of control, the T/C (dose: 66.0 mg/kg/injection, schedule: Q04DX003 (ip), vehicle: saline) was 280 % of control and 172 % of control and the T/C (dose: 100.0 mg/kg/injection, schedule: Q04DX003 (ip), vehicle: saline) was 272 % of control and 300 % of control. For the same compound, the T/C (dose: 150.0 mg/kg/injection, schedule: Q04DX003 (ip), vehicle: saline) was 272 % of control and 95 % of control.
For `[NH-]C(CO)C(=O)O.[NH-]C(CO)C(=O)O.[Pt+2]` (stereo not given), the T/C (dose: 12.5 mg/kg/injection, schedule: Q01DX009 (ip), vehicle: distilled water + Tween-80) was 115 % of control, the T/C (dose: 25.0 mg/kg/injection, schedule: Q01DX009 (ip), vehicle: distilled water + Tween-80) was 117 % of control and the T/C (dose: 50.0 mg/kg/injection, schedule: Q01DX009 (ip), vehicle: distilled water + Tween-80) was 115 % of control. For the same compound, the T/C (dose: 100.0 mg/kg/injection, schedule: Q01DX009 (ip), vehicle: distilled water + Tween-80) was 115 % of control.
